# Reference: US7067633B2, “Targeting cellular entry, cell survival, and pathogenicity by dynein light chain 1/PIN in human cells” (Board of Regents, The University of Texas System, priority 2003, dated 2006)
# Starred links: 1 amine or outer side, 2 acyl side, 3 side chain; linkers in the order of their positions; H or OH if unused. Positions of bridges follow the written chain, without caps; N, C: chain ends. Non-standard residues stand in square brackets, D forms with d. Residues, ends and D or L forms follow the SMILES beside them. Chains are numbered I, II in the order given. Actinocin(9to1) = Cc1c2oc3c(C)ccc(C(=O)[*:1])c3nc-2c(C(=O)[*:2])c(N)c1=O; NMeV = CN[C@H](C(=O)O)C(C)C; Sar = CNCC(=O)O
# Tests used:
# DLC1/PIN = assay: In vivo 32P-orthophosphate labeling and immunoprecipitation of T7-DLC1/PIN; type: cell-based, human; conditions: MCF-7 cells, EGF treatment
# Protocol: FIGS. 2A–2G—MapDLC1/PINg of interaction domains of Pak1 and DLC1/PIN. FIG. 2A: Identification of Pak1 domains that interact with DLC1/PIN. GST-Pak1 fusion proteins containing wild-type (amino acids 1–545), kinase domain (amino acids 270–545), N-terminal domain (amino acids 1–132), PIX binding domain (amino acids 132–270), Nck-binding domain (amino acids 1–75), Cdc42/Rac-interacting (CRIB) domain (amino acids 52–132), and auto-inhibitory domain (amino acids 75–149) were incubated with in vitro translated DLC1/PIN (amino acids 1–89), and binding was analyzed by GST pull-down assay. FIG. 2B: Identification of the DLC1/PIN region that is involved in the binding of Pak1. GST-fusions of various lengths of DLC1/PIN were used in the GST pull-down assay using ^35S-labelled Pak1 (amino acids 1–545). FIGS. 2C–2G—Pak1 phosphorylation of DLC1/PIN. FIG. 2C: In vitro kinase assay using GST-DLC1/PIN as a substrate and purified bacterially expressed Pak1 as an enzyme. MBP was used as a positive control. FIG. 2D: ZR75R cells stably expressing T7-DLC1/PIN were labeled in vivo with ^32P-orthophosphate, serum starved, treated with EGF or HRG, and immunoprecipitated and phosphorylation status of DLC1/PIN was visualized by autoradiography. […] Cells were metabolically labeled with ^32P orthophosphate, treated with or without EGF (1 nM) and phosphorylation of T7-DLC1/PIN was analyzed by immunoprecipitation. […]
# DLC1-ER interaction = assay: Coimmunoprecipitation of DLC1 with ER; type: cell-based, human; conditions: growth factor stimulation
# Protocol: In vitro-translated ^35ER were incubated with GST-DLC1, and analyzed by SDS-PAGE and autoradiography. FIG. 13B: Identification of ER domains that interact with DLC1. GST-ER fusion proteins containing different deletion constructs were incubated with in vitro-translated 35S-DLC1 (aa 1-89), and binding was analyzed by GST pull-down assay. FIG. 13C: Mapping of the ER-binding region in DLC1. GST-fusions of various DLC1 deletion constructs were incubated with in vitro-translated ^35S-ER, and binding was analyzed by GST pull-down assay. […] Cell lysates from Ishikawa cells was immunoprecipitated (IP) with anti-ERá mAb and immunoblotted with anti-DLC1 or ER Abs. […] Cell lysates from MCF-7/TAM-sen or Ishikawa cells were treated with Tam (10^−9M) for 24 h, and IP with anti-ERá mAb and immunoblotted with anti-DLC1 or ER Abs. […] MCF-7/DLC1 cells were treated with or without Dox for 24 h and then treated with E2 (10^−9M) or Tam (10^−8M) for 24 h, and IP with anti-ERá mAb and immunoblotted with anti-DLC1 or ER Abs. FIG. 13G: Characterization of MCF-7 cells expressing T7-DLC1-Ser88A mutant under a tetracycline-inducible promoter. […] MCF-7/DLC1 and MCF-7/DLC1-Ser88A cells were treated with or without Dox for 24 h and cell lysates were IP with anti-ERá mAb and blotted with anti-DLC1, ERá and T7 Abs.
# To this end, MCF-7 cells expressing a T7-DLC1 mutant in which Ser88 and amino acid 89 were deleted under a tet-inducible promoter (MCF-7/DLC1-1-87 mutant) were generated (FIG. 13G).
# MDA-MB231 cells = assay: Vesicle formation and DLC1/PIN-Pak1 colocalization after growth factor stimulation; type: cell-based, human; conditions: serum-starved cells, 20 min
# DLC1 = DLC1 protein and mRNA expression; type: cell-based, human; conditions: MCF-7 cells
# Protocol: MCF-7/Tam-sen, MCF-7/TAMR1 and Ishikawa cells were treated with E2 (10^−9M) or Tam (10^−9M) for 24 h, and cell lysates were assayed for DLC1 and Pak1 protein expression. […] FIG. 21C: Effect of different periods of E2 treatment and cycloheximide (CHX) and Actinomycin D (ACTD) treatment on the ability of E2 to upregulate DLC1 mRNA in MCF-7 cells.
# SKBR-3 cells = assay: Pak1-mediated macropinocytosis, vesicle formation by confocal microscopy; type: cell-based, human; conditions: cotransfected with GFP-Pak1
# Protocol: FIG. 3—Requirement of DLC1/PIN in Pak1 mediated macropinocytosis. SKBR-3 cells were cotransfected with RFP-DLC1/PIN and GFP-Pak1 (upper panel), RFP-DLC1/PIN-S88A, and GFP-Pak1 (middle panel) and RFP-DLC1-1-66, and GFP-Pak1 (lower panel). Vesicle formation and localization of GFP and RFP proteins were analyzed by confocal microscopy. Ten randomly selected fields were analyzed for each condition. The experiment was repeated twice with similar results. Quantitation of vesicles formation was done using the following scoring system. −, cells containing 0–9 vesicles; +, cells containing 10–20 vesicles; and ++, cells containing >20 vesicles.
# Requirement of DLC1/PIN in Pak1 mediated macropinocytosis. […] The inventors have used the fluorescein isothiocyanate (FITC)-labeled Dextran as a marker of endocytosis using a well-established dextran beads uptake assay (Dharmawardhane et al., 2000). […]
# SK-BR3 cells were cotransfected with RFP-DLC1 and GFP-Pak1 (upper panel), RFP-DLC1-S88A and GFP-Pak1 (middle panel), and RFP-DLC8-1-66 and GFP-Pak1 (bottom panel). Vesicle formation and localization of GFP and RFP proteins were analyzed by confocal microscopy. Ten randomly selected fields were analyzed for each condition. […]
# NIH3T3 cells = assay: UV-induced apoptosis, Lamin A/C nuclear integrity scoring; type: cell-based, murine
# Protocol: FIGS. 5A–5C—Requirement of DLC1/PIN and Pak1 interaction in cell proliferation and survival. FIG. 5A: Equal number of cells ZR75R stable cells expressing DLC1/PIN wild type or DLC1/PIN^del88-89 mutant were plated and cell proliferation was determined by trypsinizing and counting cells using a coulter counter. Each colne was plated in triplicate and experiment was repeated twice with similar results. FIG. 5B: Cell cycle progression of DLC1/PIN wild type or mutant clones was analyzed by FACS analysis. […] For example, a smooth nuclear membrane was scored as nonapoptotic, as opposed to membrane blebbing or rupture, which was scored as apoptotic. Nuclei committed to enter mitosis were not scored in either of these groups because they were easily identified for their specific “pulverized” pattern of Lamin A/C staining. Ten randomly selected fields were analyzed for each condition. […]
# DLC1/PIN regulation of cell growth and survival. […] After 10 h, apoptosis was quantitated by scoring the integrity of the nuclear membrane in cells expressing both RFP and myc tags to detect DLC/DLC1/PIN and Pak1 respectively (FIG. 5D).
compound,measurement,setting,value
"EGF: epidermal growth factor, physiologic Pak1 activator",DLC1/PIN phosphorylation,DLC1/PIN,stimulated DLC1/PIN phosphorylation
same,interaction of DLC1 with ER,DLC1-ER interaction; tamoxifen-resistant Ishikawa cells,promotes
same,interaction of DLC1 with ER,DLC1-ER interaction; tamoxifen-sensitive MCF-7 cells,not
same,vesicle-like structures with colocalization of DLC1/PIN and Pak1,MDA-MB231 cells,substantial enhancement of vesicle-like structures
"C[C@]12CC[C@@H]3c4ccc(O)cc4C[C@@H](CCCCCCCCC[S+]([O-])CCCC(F)(F)C(F)(F)F)[C@H]3[C@@H]1CC[C@@H]2O (stereo partly drawn) [ICI 182,780]",estrogen-induced DLC1 expression,DLC1,effectively blocked
"Cc1c2oc3c(C)ccc(C(=O)N[C@@H]4C(=O)N[C@H](C(C)C)C(=O)N5CCC[C@H]5C(=O)N(C)CC(=O)N(C)[C@@H](C(C)C)C(=O)O[C@@H]4C)c3nc-2c(C(=O)N[C@@H]2C(=O)N[C@H](C(C)C)C(=O)N3CCC[C@H]3C(=O)N(C)CC(=O)N(C)[C@@H](C(C)C)C(=O)O[C@@H]2C)c(N)c1=O [actinomycin D] (I: T[dV]P[Sar][NMeV] / II: T[dV]P[Sar][NMeV]; ester I:1-I:C, II:1-II:C; linker I:N-II:N via Actinocin(9to1))",estrogen-induced DLC1 expression,DLC1,effectively blocked
"S88A DLC1/PIN: DLC1/PIN mutant, serine 88 to alanine, lacking the Pak1 phosphorylation site",Pak1-induced vesicle formation,SKBR-3 cells,substantially interfered
same,UV-induced apoptosis substantially reduced,NIH3T3 cells; 10 h after UV-irradiation,not
same,protection from UV-induced apoptosis by overexpression of active Pak1,NIH3T3 cells; cotransfected with catalytically active Pak1,unable to protect
